Measurements reported in ChEMBL document CHEMBL1201862, “PubChem BioAssay data set” (2004).
Calls of active or inactive are those of the source.

Key:
[1] = YAP1 overexpression rescue of CTGF inhibition – DLD1 cells, RT-qPCR, cherry-pick, mechanism study for YAP1 pathway inhibitor project, dose response (AID 1053127); type: functional, cell-based; conditions: DLD-1
[2] = A2780 cell killing – plate reader, dry powder samples, cytotoxicity control, dose response (AID 743046); type: functional, cell-based
[3] = target: Paired box protein Pax-8 (Homo sapiens, UniProt Q06710); assay: PAX8 transcriptional activity inhibition in RMG-I – RMG-I cells, luciferase, cherry-pick, dose response (AID 687027); type: functional, cell-based;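 note: luciferase reporter driven by Pax8 target thyroperoxidase promoter measured by SteadyGlo luminescence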
[4] = IC50 of insulin release inhibition, rat insulinoma INS-1E line, 5 mM glucose, cell-based (AID 1117331); type: functional
[5] = cells; type: functional, cell-based; conditions: INS-1E
[6] = growth inhibition of PfATP4-mutant resistant parasites – NITD609-resistant line, SYBR Green, dry powder, dose response (AID 1159571); type: functional, cell-based;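 note: parasites synchronized at ring stage by sorbitol before testing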
[7] = Dd2 malaria parasite growth inhibition potency – SYBR Green, dry powder samples, dose response (AID 1159566); type: functional, cell-based;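 note: potency for growth inhibition with lower SYBR green DNA signal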
[8] = P. falciparum Dd2 growth inhibitors, dose response, SYBR Green, cherry-picked samples (AID 1159567); type: functional, cell-based
[9] = growth inhibition of yeast DHODH-expressing 3D7 parasites – SYBR Green, dry powder samples, dose response (AID 1159570); type: functional, cell-based;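 note: parasite growth measured after 72 hours of compound exposure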
[10] = toxicity to human HepG2 hepatoma cells – cell-based, plate reader, dry powder samples, cytotoxicity control, dose response (AID 1159569); type: functional;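 note: inhibitor potency with signal falling toward the positive control level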
[11] = Late stage assay provider results from the probe development effort to identify inhibitors of the Plasmodium falciparum M18 Aspartyl Aminopeptidase (M18AAP): radiolabel-based cell-based dose response assay to identify compounds that inhibit P. falciparum growth in RBCs, Set 2..; type: functional
[12] = target: G-protein coupled receptor 183 (Homo sapiens, UniProt P32249); assay: SAR confirmation of small molecule antagonists of the EBI2 receptor via a luminescent beta-arrestin assa.; type: functional
Sequence of G-protein coupled receptor 183 (P32249 whole entry): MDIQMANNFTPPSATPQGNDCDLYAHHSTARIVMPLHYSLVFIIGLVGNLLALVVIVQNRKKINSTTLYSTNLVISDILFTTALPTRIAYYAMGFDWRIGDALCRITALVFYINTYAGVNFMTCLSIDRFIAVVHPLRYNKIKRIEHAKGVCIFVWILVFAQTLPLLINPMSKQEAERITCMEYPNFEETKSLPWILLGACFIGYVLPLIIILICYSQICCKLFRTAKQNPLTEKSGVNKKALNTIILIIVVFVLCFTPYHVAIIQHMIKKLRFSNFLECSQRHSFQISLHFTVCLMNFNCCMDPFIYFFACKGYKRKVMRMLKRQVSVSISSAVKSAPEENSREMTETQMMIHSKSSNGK

Sequence of Paired box protein Pax-8 (Q06710 whole entry): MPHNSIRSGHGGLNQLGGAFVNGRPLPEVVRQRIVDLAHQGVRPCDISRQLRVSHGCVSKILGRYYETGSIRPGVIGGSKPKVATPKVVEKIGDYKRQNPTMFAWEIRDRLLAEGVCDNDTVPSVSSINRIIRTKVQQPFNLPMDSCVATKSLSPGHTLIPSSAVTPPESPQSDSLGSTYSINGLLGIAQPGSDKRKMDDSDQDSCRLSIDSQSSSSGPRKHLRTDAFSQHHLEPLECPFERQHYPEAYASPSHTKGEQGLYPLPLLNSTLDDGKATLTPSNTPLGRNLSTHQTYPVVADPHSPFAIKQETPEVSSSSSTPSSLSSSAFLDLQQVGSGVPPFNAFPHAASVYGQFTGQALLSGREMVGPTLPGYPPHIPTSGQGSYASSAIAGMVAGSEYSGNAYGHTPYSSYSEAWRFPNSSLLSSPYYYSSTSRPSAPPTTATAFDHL

With `COc1cccc(-c2ccc([C@@H]3[C@@H](CO)N4CCCCN(C(=O)Cc5ccncc5)C[C@@H]34)cc2)c1` the AC50 [1] was > 26 µM (inactive).
For `C[C@H]1CCCCO[C@H](CN(C)S(=O)(=O)c2ccc(Cl)cc2)[C@@H](C)CN([C@@H](C)CO)C(=O)c2cc(NS(=O)(=O)c3ccc(F)cc3)ccc2O1`, the AC50 [2] was 58.4 µM (active) and the AC50 [3] was 8.27 µM (active).
In the case of `Cc1cc2c(OCC(CNC(C)(C)C)OC(=O)c3ccccc3)cccc2[nH]1` (configuration not stated) [BOPINDOLOL], the IC50 [4] is reported as 14.6 µM (inactive) and the IC50 [5] is reported as > 33.3 µM (inactive).
With `O=C(Nc1ccc(C(F)(F)F)cc1)N1C[C@@H]2N[C@H](C1)[C@@H]2c1ccc(-c2cccnc2)cc1` the AC50 [6] was 0.022 µM (active), the AC50 [7] was 0.0354 µM (active) and the AC50 [8] was 1.12 µM (active). For the same compound, the AC50 [9] was 0.0146 µM (active) and the AC50 [10] was 18.6 µM (active).
In the case of `Oc1ccc(CCNc2c3c(nc4ccccc24)CCCC3)cc1O`, the IC50 [11] is reported as 3.6 µM (active).
In the case of `O=C(/C=C/c1ccc(F)cc1)N1CCN(S(=O)(=O)c2ccccc2F)CC1`, the IC50 [12] is reported as 0.0194 µM (active).
